This is an account of results in patent US6528456B2, “Herbicidal 2-pyrazolyl-6-aryloxypyri(mi)dines” (BASF Aktiengesellschaft, priority 1999, dated 2003).

In the test the test system is Stellaria media. Briefly: Post-emergence test. The format is in vivo. Particulars: 2-4 weeks after treatment. The method, then: To evaluate their herbicidal activity, compounds according to the invention are tested using a representative range of plants: STEME Stellaria media [table] […] These acetone solutions are diluted with water and the resulting formulations applied at dosage levels equivalent of about 0.1 to 0. 4 kg per hectare of test compound per pot. After spraying the plants are placed on greenhouse benches and are cared for in the usual manner, commensurate with conventional greenhouse practices. From 2 to 4 weeks after treatment, the seedling plants are examined and rated according to the rating system provided above.

With `Cc1cnc(-c2cc(C(F)(F)F)nn2C)nc1Oc1cc(C(F)(F)F)nn1C` [Example 4, 2-(1-Methyl-3-trifluoromethylpyrazol-5-yl)-6-(1-methyl-3-trifluoromethylpyrazol-5-yloxy)-5-methylpyrimidine], the STEME herbicidal rating is, setting by setting: (0.1 kg/ha) 5 (5 - Definite injury); (0.4 kg/ha) 6 (6 - Herbicidal effect).
